What was measured:
[1] = system: HBV viral production in AD38 cells; test: Viral load production in AD38 cells by quantitative PCR of the HBV core sequence in supernatant; assay type: cell-based; settings: Hepatitis B virus, 144 h; 10 μM compound, 6 days at 37° C., viral load in supernatant compared against DMSO control wells; read-out: AD38 Viral Load (CpAM/DMSO %) at 10 μM
How it was run: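 Read-out is TaqMan qPCR of the HBV core region in supernatant, quantitated against standards and referenced to DMSO controls (≥3 per plate). Cells: AD38 at 50,000/well, exposed to compound (added as 10× stock in 10% DMSO) for 6 days at 37° C.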

AD38 cells = test: Viability of AD38 cells (Promega CellTiter-Glo) at the end of compound treatment; assay type: cell-based; settings: 10 μM compound, 6 days, luminescence normalized against DMSO control wells (controls being 100%)
How it was run: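 Luminescent CellTiter-Glo read-out, taken after supernatant was swapped for tetracycline-free 2% FBS medium with 1% DMSO, gave percent viability relative to DMSO controls set at 100%. Cells were plated at 50,000/well and exposed to compound, added as a 10× stock in 10% DMSO, for 6 days at 37° C.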

Structure (SMILES) | activity at 10 µM [1] [%] | AD38 Viability Normalized Result (CPAM/DMSO %) at 10 μM (AD38 cells) [%]
CN1C(=O)c2ccccc2Sc2ccc(C(=O)NCc3cccnc3)cc21 [Compound 1553] | 86 | 93
O=C(NCCc1cccnc1)c1ccc2c(c1)NC(=O)c1c(F)cccc1S2 [Compound 1555] | 36 | 81
O=C1Nc2cc(S(=O)(=O)NCc3cncs3)ccc2Sc2ccccc21 [Compound 1556] | 67 | 86
O=C(NCCc1cnco1)c1cc2c(cc1F)Sc1ccccc1C(=O)N2 [Compound 1557] | 54 | 86
O=C(NCCc1cncs1)c1cc2c(cc1F)Sc1ccccc1C(=O)N2 [Compound 1558] | 51 | 88
O=C(NCCc1cnco1)c1ccc2c(c1)NC(=O)c1ccccc1N2Cc1ccccc1 [Compound 1559] | 68 | 92
Cc1c(C(=O)NCCc2cnco2)ccc2c1NC(=O)c1ccccc1S2 [Compound 1560] | 13 | 92
Cc1c(C(=O)NCCc2cncs2)ccc2c1NC(=O)c1ccccc1S2 [Compound 1561] | 8 | 118
O=C1Nc2c(cc(F)c(C(=O)NCCc3cncnc3)c2F)Sc2ccccc21 [Compound 1562] | 25 | 89
O=C1Nc2c(cc(F)c(C(=O)NCCc3cncs3)c2F)Sc2ccccc21 [Compound 1563] | 41 | 93
CCN1c2ccc(C(=O)NCc3cnco3)cc2NC(=O)c2ccccc21 [Compound 1564] | 10 | 119
CCN1c2ccc(C(=O)NCCc3cncnc3)cc2NC(=O)c2ccccc21 [Compound 1565] | 4 | 103
CCN1c2ccc(C(=O)NCCc3cncs3)cc2NC(=O)c2ccccc21 [Compound 1566] | 31 | 91
Cc1nnc(CCNC(=O)c2ccc3c(c2)NC(=O)c2ccccc2S3)s1 [Compound 1567] | 1 | 109
Nc1nnc(CCNC(=O)c2ccc3c(c2)NC(=O)c2ccccc2S3)s1 [Compound 1568] | 1 | 100
O=C(NCCc1cccnn1)c1ccc2c(c1)NC(=O)c1ccccc1S2 [Compound 1569] | 1 | 114
O=C(NCCc1nnc(-c2ccco2)[nH]1)c1ccc2c(c1)NC(=O)c1ccccc1S2 [Compound 1570] | 2 | 115
O=C(NCc1nncs1)c1ccc2c(c1)NC(=O)c1ccccc1S2 [Compound 1571] | 35 | 117
O=C(NCc1ccncc1)c1ccc2c(c1)NC(=O)c1ccccc1S2 [Compound 1572] | 5 | 116
CN1C(=O)c2ccccc2Sc2ccc(C(=O)NCc3cncs3)cc21 [Compound 1573] | 46 | 126
CN1C(=O)c2ccccc2Sc2ccc(C(=O)NCc3cncnc3)cc21 [Compound 1574] | 78 | 109
NC(=O)c1ccc2c(c1)NC(=O)c1ccccc1[S+]2[O-] (centres unmarked) [Compound 1575] | 90 | 108

Structure (SMILES) | activity at 10 µM [1] [%] | AD38 Viability Normalized Result (CPAM/DMSO %) at 10 μM (AD38 cells) [%]
Cc1nnc(CNC(=O)c2ccc3c(c2)NC(=O)c2ccccc2S3)o1 [Compound 1578] | 33 | 100
O=C(NCCc1cnco1)c1ccc2c(c1)NC(=O)c1c(F)cccc1S2 [Compound 1580] | 59 | 89
CN1c2ccc(C(=O)NCc3cncs3)cc2NC(=O)c2ccccc21 [Compound 1581] | 3 | 97
NC(=O)CSc1nnc(CCNC(=O)c2ccc3c(c2)NC(=O)c2ccccc2S3)o1 [Compound 1582] | 8 | 112
Cc1nnc(CCNC(=O)c2ccc3c(c2)NC(=O)c2ccccc2S3)[nH]1 [Compound 1583] | 41 | 121
O=C(NCc1cscn1)c1ccc2c(c1)NC(=O)c1ccccc1S2 [Compound 1584] | 52 | 95
O=C(NCc1ccncn1)c1ccc2c(c1)NC(=O)c1ccccc1S2 [Compound 1585] | 66 | 87
O=C(NCc1cnccn1)c1ccc2c(c1)NC(=O)c1ccccc1S2 [Compound 1586] | 23 | 112
O=C(NCc1ncccn1)c1ccc2c(c1)NC(=O)c1ccccc1S2 [Compound 1587] | 78 | 92
Cc1ncc(CNC(=O)c2ccc3c(c2)NC(=O)c2ccccc2S3)s1 [Compound 1588] | 0 | 98
O=C(NCc1cnc(Cl)s1)c1ccc2c(c1)NC(=O)c1ccccc1S2 [Compound 1589] | 1 | 85
O=C(NCc1cnc(-c2ccccc2)s1)c1ccc2c(c1)NC(=O)c1ccccc1S2 [Compound 1590] | 1 | 96
O=C(NCc1cccnc1)c1ccc2c(c1)NC(=O)c1ccccc1C2 [Compound 1591] | 13 | 111
O=C(NCC1CCCO1)c1ccc2c(c1)NC(=O)c1ccccc1S2 (centres unmarked) [Compound 1592] | 50 | 102
O=C(NCc1cncs1)c1ccc2c(c1)NC(=O)c1ccccc1O2 [Compound 1593] | 3 | 133
O=C(NCc1cccnc1)c1ccc2c(c1)NC(=O)c1ccccc1O2 [Compound 1594] | 4 | 109
O=C(NCc1cncnc1)c1ccc2c(c1)NC(=O)c1ccccc1O2 [Compound 1595] | 3 | 108
O=C1Nc2cc(S(=O)(=O)NCCc3cncnc3)ccc2Sc2ccccc21 [Compound 1597] | 64 | 87
O=C(NCCc1cncs1)c1ccc2c(c1)NC(=O)c1c(F)cccc1S2 [Compound 1598] | 61 | 93
O=C(NCc1nnc[nH]1)c1ccc2c(c1)NC(=O)c1ccccc1S2 [Compound 1599] | 72 | 101
Cc1ncsc1CNC(=O)c1ccc2c(c1)NC(=O)c1ccccc1S2 [Compound 1600] | 12 | 108

Reference: patent publication US10183936B2, “Hepatitis B core protein allosteric modulators” (priority 2014, dated 2019)
